This passage reports Ki results from patent US20090275648A1, “MACROCYCLIC GHRELIN RECEPTOR ANTAGONISTS AND INVERSE AGONISTS AND METHODS OF USING THE SAME” (priority 2005, published 2009).

The structures appear in SMILES notation. pKi: −log10 of the molar value.

This assay has as its target T1, HEK293 cells expressing GHS-R1a receptor (Homo sapiens, UniProt Q92847).
T1 construct: host or cells: HEK293 cells (grown under geneticin selection)
The experiment in a line: Fluorescence functional assay (ghrelin receptor), Example 2. In kind it is cell-based. The conditions noted are these: assay of Example 2 (fluorescence, calcium). The method, then:
The compounds of the present invention were evaluated for their ability to interact at the human ghrelin receptor utilizing a competitive radioligand binding assay, fluorescence assay or Aequorin functional assay as described in the examples below. Such methods can be conducted, if so desired, in a high throughput manner to permit the simultaneous evaluation of many compounds.
• 1. Hanks' BSS without phenol red (Life Technologies) • 2. Hepes buffer • 3. Probenecid (Sigma) • 4. FLIPR Calcium-3 Assay Kit (Molecular Devices #R-8091) • 5. Falcon cell culture 96-well black/clear bottom plates • 6. 0.05% trypsin-EDTA • 7. […]
The plates were removed from the incubator and the media removed by inversion of the plates. […] For agonist testing, after reading for ten (10) sec, 25 μL of 2× test compound or control was injected into the assay plate. Fluorescence was monitored for an additional 50 sec. A reading was taken every two (2) seconds for a total of 30 readings per assay point.
For antagonist testing, after reading for ten (10) sec, 12.5 μL of 3× test compound or control was injected into the assay plate and allowed to react for three (3) min. At that time, 4 nM ghrelin (corresponds to EC80) was injected and fluorescence was monitored for an additional 60 sec. A reading was taken every two (2) seconds for a total of 125 readings per data point. […]

T1 sequence (Q92847 whole entry): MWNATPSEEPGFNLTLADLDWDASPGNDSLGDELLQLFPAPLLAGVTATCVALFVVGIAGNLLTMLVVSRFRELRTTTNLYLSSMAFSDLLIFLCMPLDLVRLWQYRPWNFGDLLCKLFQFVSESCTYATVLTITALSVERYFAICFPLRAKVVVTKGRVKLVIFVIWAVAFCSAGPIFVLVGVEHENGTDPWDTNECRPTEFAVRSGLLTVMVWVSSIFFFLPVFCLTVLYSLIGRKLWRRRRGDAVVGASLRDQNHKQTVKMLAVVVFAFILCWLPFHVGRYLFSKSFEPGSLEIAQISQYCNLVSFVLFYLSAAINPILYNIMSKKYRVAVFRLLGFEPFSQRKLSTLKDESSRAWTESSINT

As usually defined, the pKi is the Ki on a negative log10 scale, so that one unit is a factor of ten. As to `CCC(C)[C@@H]1NCCOc2ccccc2/C=C/CNC(=O)[C@@H](Cc2ccccc2)NC(=O)[C@H](C(C)O)N(C)C1=O` (stereo partly shown) [Compound 502], the pKi was 6.00 to 7.00.
